Test results as given in PubChem BioAssay AID1817 (Sanford-Burnham Center for Chemical Genomics, 2009).
The source made the active and inactive calls.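 Rule for the calls: active = displacement of at least 50% at 20 µM, with a fluorescence ratio check between 0.3 and a set limit; inactive = the rest.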

These compounds were tested against E3 ubiquitin-protein ligase SIAH1 (Homo sapiens) (UniProt Q8IUQ4) (assay: blockers of Siah-1 interaction with plectin peptide – biochemical, fluorescence polarization, rhodamine-plectin, uHTS, primary screen (AID 1817)). Settings: Siah-1 / rhodamine-plectin peptide fluorescence polarization.
E3 ubiquitin-protein ligase SIAH1 (Homo sapiens), sequence (Q8IUQ4 whole entry, looked up): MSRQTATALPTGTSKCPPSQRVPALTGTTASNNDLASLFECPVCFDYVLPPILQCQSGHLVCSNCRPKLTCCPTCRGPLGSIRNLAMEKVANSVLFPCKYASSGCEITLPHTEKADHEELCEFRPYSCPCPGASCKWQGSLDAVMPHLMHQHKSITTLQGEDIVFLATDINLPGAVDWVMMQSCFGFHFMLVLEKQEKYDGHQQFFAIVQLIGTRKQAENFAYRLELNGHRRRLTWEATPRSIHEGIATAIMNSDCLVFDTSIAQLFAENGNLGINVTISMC

Row | Compound | IC50
1 | COc1cccc2cc(C(=O)N3CCc4ccccc43)c(=O)oc12 | > 200 µM (inactive)
2 | CCCCn1c(NS(=O)(=O)c2ccc(C)cc2)c(S(=O)(=O)c2ccccc2)c2nc3ccccc3nc21 | > 200 µM (inactive)
3 | Oc1ccc(N=Cc2sc3ccccc3c2Cl)cc1 | inactive
4 | COc1ccc(C(C(=O)NCc2ccccc2)N(Cc2ccco2)C(=O)c2cnccn2)cc1 (stereo unspecified) | > 200 µM (inactive)
5 | CCN(CC)c1ccc(C=N/C(C#N)=C(\N)C#N)cc1 | > 200 µM (inactive)
6 | CSc1ccccc1C(=O)NC(C)c1ccc(-n2ccnc2)cc1 (stereo unspecified) | > 200 µM (inactive)
7 | CCCCNc1nnc(Cc2ccc(Cl)cc2)c(=O)[nH]1 | > 200 µM (inactive)
8 | O=C(O)CCN1C(=O)/C(=C/c2cn(-c3ccccc3)nc2-c2cccs2)SC1=S | > 200 µM (inactive)
9 | O=c1[nH]n(-c2ccc([N+](=O)[O-])cc2)c(=O)c2ccccc12 | 15.7 µM
10 | COCCCNc1c2c3c(cccc3[nH]c1=O)C(=O)c1ccccc1-2 | > 200 µM (inactive)
11 | CC1=C(C#N)c2nc(N)c(C#N)c(C)c2/C1=C\c1ccc(-c2ccccc2C(=O)O)o1 | 20.6 µM
12 | c1ccc(C(c2ccccc2)N2CCN(C(c3ccccn3)c3nnnn3C3CCCC3)CC2)cc1 (stereo unspecified) | > 200 µM (inactive)
13 | O=C(CCn1ccc2ccccc21)NC1CCCc2ccccc21 (stereo unspecified) | > 200 µM (inactive)
14 | COC(=O)c1c(C(=O)OC)c2cccc3cc(-c4ccccc4)c4ccc1c4n32 | inactive
15 | CC(C)(C)c1ccc(C(CC(=O)O)NC(=O)Cc2ccc(F)cc2)cc1 (stereo unspecified) | 25.6 µM
16 | Cc1cc(C)c(C#N)c(Nc2ccccc2C)n1 | > 200 µM (inactive)
17 | CC(C)COc1ccc(-c2nn(-c3ccccc3)cc2/C=C2/SC(=S)N(CC(=O)O)C2=O)cc1 | > 200 µM (inactive)
18 | CCOc1cc(/C=C(\C#N)C(=O)Nc2ccccc2C(=O)O)ccc1OC(=O)c1ccc(C)cc1 | > 200 µM (inactive)
19 | Cc1ccc(CNc2ccc(O)cc2)cc1 | inactive
20 | O=c1ccc2c(-c3ccccc3)c3ccc(O)cc3oc-2c1 | 11.1 µM
21 | O=C(O)CCCCN1C(=O)/C(=C\c2ccc(OCc3ccccc3)c(OCc3ccccc3)c2)SC1=S | > 200 µM (inactive)
22 | O=C(Nc1cc([N+](=O)[O-])ccc1N1CCOCC1)c1cccs1 | > 200 µM (inactive)
23 | Cc1ccc(S(=O)(=O)N2CCC(=O)N(C(COCc3cccc(C)c3)Cc3ccccc3)CC2)cc1 (stereo unspecified) | > 200 µM (inactive)
24 | O=S(=O)(Nc1nc2ccccc2nc1Nc1ccc(N2CCOCC2)cc1)c1cc(Cl)ccc1Cl | > 200 µM (inactive)

Row | Compound | IC50
25 | CCOC(=O)c1c(C)[nH]c2c1-c1ccccc1C(=O)C2=O | > 200 µM (inactive)
26 | Nc1ccc(O)c2c1C(=O)c1ccccc1C2=O | 1.52 µM
27 | Cc1ccc2c(c1)N(CC(=O)NCCc1ccc(Cl)cc1)C(=O)c1cccnc1O2 | > 200 µM (inactive)
28 | Nc1c(C(=O)NCc2ccco2)c2nc3ccccc3nc2n1CCc1ccccc1 | > 200 µM (inactive)
29 | O=C(O)c1cc(O)c2c(c1)C(=O)c1cccc(O)c1C2=O | inactive
30 | CCC1=Nc2cc(C(=O)O)ccc2Sc2ccccc21 | > 200 µM (inactive)
31 | COc1cc(CNc2ccc(O)cc2)cc(Br)c1OCc1ccccc1F | inactive
32 | O=C(O)CCCNc1cc(N2CCN(C(=O)c3ccco3)CC2)c2noc3c2c1C(=O)c1ccccc1-3 | 4.21 µM
33 | O=S(=O)(Nc1c(S(=O)(=O)c2ccccc2)c2nc3ccccc3nc2n1C1CCCCC1)c1ccccc1 | > 200 µM (inactive)
34 | COc1cc(/C=C(\C#N)c2nc3ccccc3[nH]2)ccc1OC(=O)c1ccco1 | > 200 µM (inactive)
35 | O=C(Nc1ccc(Br)cc1)c1ccc(N2C(=O)C3CC=CCC3C2=O)cc1 (stereo unspecified) | 18.6 µM
36 | CCCCn1c(NC(=O)c2ccco2)c(S(=O)(=O)c2ccc(C)cc2)c2nc3ccccc3nc21 | > 200 µM (inactive)
37 | O=S(=O)(Nc1cc2nc3ccccc3nc2n1Cc1ccccc1)c1ccc(Cl)cc1 | > 200 µM (inactive)
38 | Cc1ccc(C(=O)COc2ccccc2C(=O)Nc2ccccc2)cc1 | > 200 µM (inactive)
39 | Cc1cc2cc(CNC(=O)c3ccc(S(=O)(=O)N4CCCCC4)cc3)ccc2n1C | > 200 µM (inactive)
40 | O=C(CC1Nc2cccc3cccc(c23)NC1=O)Nc1ccccc1 (stereo unspecified) | > 200 µM (inactive)
41 | Cc1ccn2c(C(=O)CSc3ccc(Cl)cc3Cl)c(C)nc2c1 | > 200 µM (inactive)
42 | CCN(CC)CCOC(=O)c1ccc(N/C=C(/C#N)c2nc(-c3ccc(OC)c(OC)c3)cs2)cc1 | 12.5 µM
43 | COC/C=C/C1=CC2=CC(=O)C(C)(OC(=O)c3ccco3)C(=O)C2=CO1 (stereo unspecified) | inactive
44 | CCNc1ccc(C(=O)O)cc1N | inactive
45 | CC1=CC(C)(C)N2C(=O)C(=Nc3ccc(O)cc3)c3cccc1c32 | inactive
46 | N#CC1C=Cc2ccccc2N1C(=O)c1ccccc1 (stereo unspecified) | > 200 µM (inactive)
47 | C=CCc1cccc2cc(C(=O)Nc3ccc(CC(=O)O)cc3)c(=O)oc12 | 17.3 µM
48 | O=C(Nc1ccccc1N1CCCCC1)c1ccc(-c2cccc(Cl)c2)o1 | > 200 µM (inactive)

Row | Compound | IC50
49 | Cc1c(C(=O)O)sc2nc(CSc3ncc(C(F)(F)F)cc3Cl)[nH]c(=O)c12 | > 200 µM (inactive)
50 | COC(=O)c1cc(NC(=O)c2ccccc2)c(=O)oc1/C=C/Nc1ccc(Oc2ccccc2)cc1 | > 200 µM (inactive)
51 | COc1ccc(-c2cnnn2-c2ccc(N)cc2)cc1OC | > 200 µM (inactive)
52 | COc1cc(CC(=O)NCc2ccc3c(c2)OCO3)cc(OC)c1OC | > 200 µM (inactive)
53 | C=CCn1c(NS(=O)(=O)c2ccccc2)c(S(=O)(=O)c2ccc(C)cc2)c2nc3ccccc3nc21 | > 200 µM (inactive)
54 | CN(C)CCOC(=O)CCc1ccccc1 | > 200 µM (inactive)
55 | COCCOC(=O)c1sc(=S)n(CCOC)c1N | 8.07 µM
56 | Cc1cc(C)n2ncc(C(=O)Nc3ccc4c(c3)OCO4)c2n1 | > 200 µM (inactive)
57 | S=c1[nH]nc(Cc2cccc3ccccc23)n1-c1ccccc1 | > 200 µM (inactive)
58 | O=c1[nH]c2ccc(S(=O)(=O)N3CCCCC3)cc2s1 | > 200 µM (inactive)
59 | CCc1nnc(NS(=O)(=O)c2ccc(NC(=S)NC(=O)/C=C/c3ccc(C(C)C)cc3)cc2)s1 | 19.2 µM
60 | CCCCN(Cc1cc2cc(OC)ccc2[nH]c1=O)S(=O)(=O)c1ccc(C)cc1 | > 200 µM (inactive)
61 | O=C(Nc1ccc(Oc2ccsc2C(=O)O)cc1)c1ccccc1F | > 200 µM (inactive)
62 | Oc1c(Br)cc(Br)cc1CNc1ccc(F)cc1 | > 200 µM (inactive)
63 | O=C(Nc1ccc(S(=O)(=O)N2CCOCC2)cc1)c1ccc(=O)[nH]c1 | 20.5 µM
64 | C=C(C)Cn1c(N2CCN(CC)CC2)nc2c1c(=O)[nH]c(=O)n2C | > 200 µM (inactive)
65 | CC1CCN(S(=O)(=O)c2nnc(NC(=O)c3cccc(Cl)c3)s2)CC1 | > 200 µM (inactive)
66 | Cc1cc(C)n(-c2ccc(Cl)c(C(=O)Nc3cc(C(F)(F)F)ccc3Cl)n2)n1 | > 200 µM (inactive)
67 | CCCCn1c(NC(=O)c2ccc(Br)o2)c(C(=O)OCC)c2nc3ccccc3nc21 | > 200 µM (inactive)
68 | Oc1ccc(N=Cc2ccc(OCc3ccccc3)cc2)cc1 | inactive
69 | Cc1c(Cc2ccccc2)c(=O)oc2c(C)c(OCC(=O)N[C@@H](Cc3ccccc3)C(=O)O)ccc12 | inactive
70 | Nc1c(C(=O)NCc2ccco2)c2nc3ccccc3nc2n1Cc1ccccc1 | > 200 µM (inactive)
71 | NS(=O)(=O)c1ccc(NC(=O)c2cccc(N3C(=O)c4ccccc4C3=O)c2)cc1 | inactive
72 | CCCCn1c(NS(=O)(=O)c2ccccc2)c(C(=O)OCC)c2nc3ccccc3nc21 | > 200 µM (inactive)

Row | Compound | IC50
73 | CCCCn1c(NS(=O)(=O)c2ccccc2)c(S(=O)(=O)c2ccc(C)cc2)c2nc3ccccc3nc21 | > 200 µM (inactive)
74 | CC(C)(C)c1cc(-c2csc(Nc3ccccc3)[n+]2Cc2ccc(C(=O)O)cc2)cc(C(C)(C)C)c1O | > 200 µM (inactive)
75 | Cc1coc2c(C)c3oc(=O)c(CCC(=O)N[C@@H](C)C(=O)N[C@@H](Cc4ccccc4)C(=O)O)c(C)c3cc12 | 16.8 µM
76 | O=C(CSc1ccc(Br)c2cccc(Cl)c12)Nc1ccc(S(=O)(=O)Nc2nccs2)cc1 | > 200 µM (inactive)
77 | CC(=O)Nc1ccc(N=Cc2c(O)c(C(=O)Nc3ccccc3)cc3ccccc23)cc1 | 24.9 µM
78 | O=C1C=C(NCc2ccccc2)c2ccccc2C1=O | > 200 µM (inactive)
79 | CC12CCC(C(=O)NCc3ccc(Cl)cc3)(OC1=O)C2(C)C (stereo unspecified) | > 200 µM (inactive)
80 | C[N+]1(CCNC(=O)/C=N/O)CCCCC1 | > 200 µM (inactive)
81 | O=C1CCCC(O)=C1N=Nc1ccc(C(=O)O)cc1 | > 200 µM (inactive)
82 | Cc1ccccc1NC(=O)CN1C(=O)N/C(=C\c2ccccc2OCc2ccc(C(=O)O)cc2)C1=O | 11.5 µM
83 | COC(=O)c1ccc2c(c1)C(C)(C)C(/C=C/c1ccccc1O)=[N+]2C | > 200 µM (inactive)
84 | O=C(/C=C/c1ccco1)OCc1nnc(-c2ccccc2)o1 | > 200 µM (inactive)
85 | CCC(C)[C@H](NC(=O)N1CCn2c1nc1ccccc12)C(=O)NCCc1ccc(OC)c(OC)c1 (stereo partly specified) | > 200 µM (inactive)
86 | O=S(=O)(O)c1cc(O)c2c(O)c(N=Nc3cc(Cl)ccc3O)c(S(=O)(=O)O)cc2c1 | 5.13 µM
87 | O=C(Nc1ccc(Cl)cc1)c1ccc(S(=O)(=O)N2CCOCC2)cc1 | > 200 µM (inactive)
88 | COC(=O)C1CC(=O)N(c2ccc(OCc3ccccc3Cl)cc2)C1 (stereo unspecified) | > 200 µM (inactive)
89 | O=C(Nc1ccc(Cl)cc1)OCc1cn(-c2ccccc2)nn1 | > 200 µM (inactive)
90 | O=C(NCc1c(F)cccc1F)c1cc(COc2c(F)cccc2F)on1 | > 200 µM (inactive)
91 | CC(NC(=O)Nc1ccc(O)cc1)(C(F)(F)F)C(F)(F)F | > 200 µM (inactive)
92 | NS(=O)(=O)c1ccc(NS(=O)(=O)c2ccc(NC(=O)c3ccc(-c4ccccc4)cc3)cc2)cc1 | 1.56 µM
93 | COc1ccc(CCNC(=O)c2ccc(S(=O)(=O)N(C)c3ccccc3)cc2)cc1OC | > 200 µM (inactive)
94 | O=c1[nH]c(-c2ccc(F)cc2)nc2c1sc(=S)n2-c1ccccc1 | 19.6 µM
95 | CN(C)c1cccc2c(C=C(C#N)C#N)ccc(N(C)C)c12 | > 200 µM (inactive)
96 | O=C(Cn1cnc2scc(-c3ccccc3)c2c1=O)NCc1ccco1 | > 200 µM (inactive)
